Experimental data reported in US10981891B2, “Antibacterial compounds and uses thereof” (priority 2016, dated 2021).
Converted amounts (≈) assume the structure as drawn. Read-outs that look alike come from different tables or passages of the source.

System: M. tuberculosis H37Rv (ATCC 27294)
Test: Microplate Alamar Blue assay (MABA), MIC against replicating M. tuberculosis H37Rv
Format: cell-based
Details: Mycobacterium tuberculosis, 168 h, read-out: M. tuberculosis MIC
[1] = H37Rv, MABA, 7H12 media, 7 days at 37° C., MIC = lowest concentration reducing fluorescence by 90% relative to controls

| Compound | MIC [1] [µg/mL] | MIC [µg/mL] |
| --- | --- | --- |
| COc1cc(C(O)(CCN(C)C)C(c2cc3cc(Br)ccc3nc2OC)c2cc(C)sc2C)cc(OC)n1 (stereo not drawn) [Example 33, 1-(6-Bromo-2-methoxyquinolin-3-yl)-2-(2,6-dimethoxypyridin-4-yl)-4-(dimethylamino)-1-(2,5-dimethylthiophen-3-yl)butan-2-ol] | < 0.02 | – |
| CCOc1cc(C(O)(CCN(C)C)C(c2cccc(C)c2)c2cc3cc(Br)ccc3nc2OC)cc(OCC)n1 (stereo not drawn) [Example 34, 1-(6-Bromo-2-methoxyquinolin-3-yl)-2-(2,6-diethoxypyridin-4-yl)-4-(dimethylamino)-1-(m-tolyl)butan-2-ol] | 0.04 (≈ 0.0657 µM) | – |
| COc1cccc(C(c2cc3cc(Br)ccc3nc2OC)C(O)(CCN(C)C)c2cc(C)nc(C)c2)c1OC (stereo not drawn) [Example 37, 1-(6-Bromo-2-methoxyquinolin-3-yl)-1-(2,3-dimethoxyphenyl)-4-(dimethylamino)-2-(2,6-dimethylpyridin-4-yl)butan-2-ol] | 0.08 (≈ 0.135 µM) | – |
| COc1cc(C(O)(CCN(C)C)C(c2cccc(F)c2)c2cc3cc(Br)ccc3nc2OC)cc(OC)n1 (stereo not drawn) [Example 39, 1-(6-Bromo-2-methoxyquinolin-3-yl)-2-(2,6-dimethoxypyridin-4-yl)-4-(dimethylamino)-1-(3-fluorophenyl)butan-2-ol] | < 0.02 | – |
| COc1nc2ccc(Br)cc2cc1C(c1ccccc1)C(O)(CCN(C)C)c1cccc2c1CCC2 (stereo not drawn) [Example 40, 1-(6-Bromo-2-methoxyquinolin-3-yl)-2-(2,3-dihydro-1H-inden-4-yl)-4-(dimethylamino)-1-phenylbutan-2-ol] | – | 0.07 (≈ 0.128 µM) |
| COc1cc(C(O)(CCN(C)C)C(c2ccccc2)c2cc3cc(I)ccc3nc2OC)cc(OC)n1 (stereo not drawn) [Example 42, 2-(2,6-Dimethoxypyridin-4-yl)-4-(dimethylamino)-1-(6-iodo-2-methoxyquinolin-3-yl)-1-phenylbutan-2-ol] | < 0.02 | – |
| CCSc1cc(C(O)(CCN(C)C)C(c2cc3cc(Br)ccc3nc2OC)c2cccc(OC)c2F)cc(SCC)n1 (stereo not drawn) [Example 44, 2-(2,6-Bis(ethylthio)pyridin-4-yl)-1-(6-bromo-2-methoxyquinolin-3-yl)-4-(dimethylamino)-1-(2-fluoro-3-methoxyphenyl)butan-2-ol] | < 0.02 | – |
| COc1cccc(C(c2cc3cc(Br)ccc3nc2OC)C(O)(CCN(C)C)c2cc(SC)nc(SC)c2)c1F (stereo not drawn) [Example 45, 2-(2,6-Bis(methylthio)pyridin-4-yl)-1-(6-bromo-2-methoxyquinolin-3-yl)-4-(dimethylamino)-1-(2-fluoro-3-methoxyphenyl)butan-2-ol] | < 0.02 | – |
| COc1nc2ccc(Br)cc2cc1C(c1ccnc(OC)c1OC)C(O)(CCN(C)C)c1cc(SC)nc(SC)c1 (stereo not drawn) [Example 46, 2-(2,6-Bis(methylthio)pyridin-4-yl)-1-(6-bromo-2-methoxyquinolin-3-yl)-1-(2,3-dimethoxypyridin-4-yl)-4-(dimethylamino)butan-2-ol] | < 0.02 | – |
| COc1cc(C(O)(CCN(C)C)C(c2cc3cc(Br)ccc3nc2OC)c2cccc(OC)c2F)cc(SC)n1 (stereo not drawn) [Example 48, 1-(6-Bromo-2-methoxyquinolin-3-yl)-4-(dimethylamino)-1-(2-fluoro-3-methoxyphenyl)-2-(2-methoxy-6-(methylthio)pyridin-4-yl)butan-2-ol] | < 0.02 | – |
| COc1cc(C(O)(CCN(C)C)C(c2cc3cc(Br)ccc3nc2OC)c2cccc(OC)c2F)cc(OC(F)F)n1 (stereo not drawn) [Example 49, 1-(6-Bromo-2-methoxyquinolin-3-yl)-2-(2-(difluoromethoxy)-6-methoxypyridin-4-yl)-4-(dimethylamino)-1-(2-fluoro-3-methoxyphenyl)butan-2-ol] | 0.04 (≈ 0.0615 µM) | – |
| COc1cc(C(O)(CCN(C)C)C(c2cc3cc(Br)ccc3nc2OC)c2ccnc(OC)c2OC)cc(OC(F)F)n1 (stereo not drawn) [Example 51, 1-(6-Bromo-2-methoxyquinolin-3-yl)-2-(2-(difluoromethoxy)-6-methoxypyridin-4-yl)-1-(2,3-dimethoxypyridin-4-yl)-4-(dimethylamino)butan-2-ol] | < 0.004 | – |
| COc1cc(C(O)(CCN(C)C)C(c2cc3cc(Br)ccc3nc2OC)c2cccc(C)c2F)cc(OC(F)F)n1 (stereo not drawn) [Example 54, 1-(6-Bromo-2-methoxyquinolin-3-yl)-2-(2-(difluoromethoxy)-6-methoxypyridin-4-yl)-4-(dimethylamino)-1-(2-fluoro-3-methylphenyl)butan-2-ol] | 0.01 (≈ 0.0158 µM) | – |
| COc1nc2ccc(Br)cc2cc1C(c1cccc(C)c1F)C(O)(CCN(C)C)c1cc(SC)nc(SC)c1 (stereo not drawn) [Example 55, 2-(2,6-Bis(methylthio)pyridin-4-yl)-1-(6-bromo-2-methoxyquinolin-3-yl)-4-(dimethylamino)-1-(2-fluoro-3-methylphenyl)butan-2-ol] | < 0.004 | – |
| COc1nc2ccc(Br)cc2cc1C(c1cccc2c1OCCO2)C(O)(CCN(C)C)c1cc(SC)nc(SC)c1 (stereo not drawn) [Example 56, 2-(2,6-Bis(methylthio)pyridin-4-yl)-1-(6-bromo-2-methoxyquinolin-3-yl)-1-(2,3-dihydrobenzo[b][1,4]dioxin-5-yl)-4-(dimethylamino)butan-2-ol] | 0.01 (≈ 0.0152 µM) | – |
| COc1cc(C(O)(CCN(C)C)C(c2cc3cc(Br)ccc3nc2OC)c2cccc3c2OCCO3)cc(OC(F)F)n1 (stereo not drawn) [Example 58, 1-(6-Bromo-2-methoxyquinolin-3-yl)-2-(2-(difluoromethoxy)-6-methoxypyridin-4-yl)-1-(2,3-dihydrobenzo[b][1,4]dioxin-5-yl)-4-(dimethylamino)butan-2-ol] | < 0.01 | – |
| COc1cc(C(O)(CCN(C)C)C(c2cc3cc(Br)ccc3nc2OC)c2ccnc(OC)c2OC)c(OC)c(OC)n1 (stereo not drawn) [Example 61, 1-(6-Bromo-2-methoxyquinolin-3-yl)-1-(2,3-dimethoxypyridin-4-yl)-4-(dimethylamino)-2-(2,3,6-trimethoxypyridin-4-yl)butan-2-ol] | 0.02 (≈ 0.0304 µM) | – |
| COc1cc(C(O)(CCN(C)C)C(c2cc3cc(Br)ccc3nc2OC)c2ccnc(OC)c2OC)cc(N(C)C)n1 (stereo not drawn) [Example 68, 1-(6-Bromo-2-methoxyquinolin-3-yl)-1-(2,3-dimethoxypyridin-4-yl)-4-(dimethylamino)-2-(2-(dimethylamino)-6-methoxypyridin-4-yl)butan-2-ol] | 0.01 (≈ 0.0156 µM) | – |
| COc1cc(C(O)(CCN(C)C)C(c2cc3cc(Br)ccc3nc2OC)c2sc(OC)nc2Cl)cc(OC)n1 (stereo not drawn) [Example 71, 1-(6-Bromo-2-methoxyquinolin-3-yl)-1-(4-chloro-2-methoxythiazol-5-yl)-2-(2,6-dimethoxypyridin-4-yl)-4-(dimethylamino)butan-2-ol] | 0.03 (≈ 0.047 µM) | – |
| COc1nc2ccc(C#N)cc2cc1C(c1cccc(F)c1)C(O)(CCN(C)C)c1cc2ccccc2o1 (stereo not drawn) [Example 73, 3-(2-(Benzofuran-2-yl)-4-(dimethylamino)-1-(3-fluorophenyl)-2-hydroxybutyl)-2-methoxyquinoline-6-carbonitrile] | 0.08 (≈ 0.157 µM) | – |
| COc1nc2ccc(C#N)cc2cc1C(c1cccc(F)c1)C(O)(CCN(C)C)c1cccc2ccoc12 (stereo not drawn) [Example 74, 3-(2-(Benzofuran-7-yl)-4-(dimethylamino)-1-(3-fluorophenyl)-2-hydroxybutyl)-2-methoxyquinoline-6-carbonitrile] | 0.04 (≈ 0.0785 µM) | – |
| COc1cc(C(O)(CCN(C)C)C(c2ccc(C)s2)c2cc3cc(C#N)ccc3nc2OC)cc(OC)n1 (stereo not drawn) [Example 75, 3-(2-(2,6-Dimethoxypyridin-4-yl)-4-(dimethylamino)-2-hydroxy-1-(5-methylthiophen-2-yl)butyl)-2-methoxyquinoline-6-carbonitrile] | 0.19 (≈ 0.357 µM) | – |
| COc1cc(C(c2cc3cc(C#N)ccc3nc2OC)C(O)(CCN(C)C)c2cccc3ccoc23)cc(OC(C)C)n1 (stereo not drawn) [Example 77, 3-(2-(Benzofuran-7-yl)-4-(dimethylamino)-2-hydroxy-1-(2-isopropoxy-6-methoxypyridin-4-yl)butyl)-2-methoxyquinoline-6-carbonitrile] | < 0.02 | – |
| CNCCC(O)(c1cc(OC)nc(OC)c1)C(c1ccc(C)s1)c1cc2cc(C#N)ccc2nc1OC (stereo not drawn) [Example 78, 3-(2-(2,6-Dimethoxypyridin-4-yl)-2-hydroxy-4-(methylamino)-1-(5-methylthiophen-2-yl)butyl)-2-methoxyquinoline-6-carbonitrile] | 0.09 (≈ 0.174 µM) | – |
| COc1cc(C(O)(CCN(C)C)C(c2cccc(F)c2)c2cc3cc(C#N)ccc3nc2OC)cc(OC)n1 (stereo not drawn) [Example 80, 3-(2-(2,6-Dimethoxypyridin-4-yl)-4-(dimethylamino)-1-(3-fluorophenyl)-2-hydroxybutyl)-2-methoxyquinoline-6-carbonitrile] | 0.03 (≈ 0.0565 µM) | – |
| COc1cc(C(O)(CCN(C)C)C(c2cc3cc(C#N)ccc3nc2OC)c2cccc(OC)c2F)cc(OC(F)F)n1 (stereo not drawn) [Example 82, 3-(2-(2-(Difluoromethoxy)-6-methoxypyridin-4-yl)-4-(dimethylamino)-1-(2-fluoro-3-methoxyphenyl)-2-hydroxybutyl)-2-methoxyquinoline-6-carbonitrile] | < 0.02 | – |
| COc1cc(C(O)(CCN(C)C)C(c2cc3cc(C#N)ccc3nc2OC)c2ccnc(OC)c2OC)cc(OC(F)F)n1 (stereo not drawn) [Example 83, 3-(2-(2-(Difluoromethoxy)-6-methoxypyridin-4-yl)-1-(2,3-dimethoxypyridin-4-yl)-4-(dimethylamino)-2-hydroxybutyl)-2-methoxyquinoline-6-carbonitrile] | < 0.02 | – |
| COc1cc(C(O)(CCN(C)C)C(c2cc3cc(C#N)ccc3nc2OC)c2cccc(C)c2F)cc(OC)n1 (stereo not drawn) [Example 86, 3-(2-(2,6-Dimethoxypyridin-4-yl)-4-(dimethylamino)-1-(2-fluoro-3-methylphenyl)-2-hydroxybutyl)-2-methoxyquinoline-6-carbonitrile] | < 0.02 | – |
| COc1cc(C(O)(CCN(C)C)C(c2cc3cc(C#N)ccc3nc2OC)c2cccc(OC)c2F)cc(SC)n1 (stereo not drawn) [Example 87, 3-(4-(Dimethylamino)-1-(2-fluoro-3-methoxyphenyl)-2-hydroxy-2-(2-methoxy-6-(methylthio)pyridin-4-yl)butyl)-2-methoxyquinoline-6-carbonitrile] | 0.02 (≈ 0.0347 µM) | – |
| COc1cc(C(O)(CCN(C)C)C(c2cc3cc(C#N)ccc3nc2OC)c2cccc(C)c2F)cc(OC(F)F)n1 (stereo not drawn) [Example 88, 3-(2-(2-(Difluoromethoxy)-6-methoxypyridin-4-yl)-4-(dimethylamino)-1-(2-fluoro-3-methylphenyl)-2-hydroxybutyl)-2-methoxyquinoline-6-carbonitrile] | 0.01 (≈ 0.0172 µM) | – |
